Laboratory results from patent US10221163B2 (priority 2015, dated 2019).
Like-named read-outs stand apart in the source and are kept apart here.

Columns and labels:
IMP-1 = IMP-1 (Serratia marcescens, UniProt P52699); experiment: biochemical; assay type: biochemical; conditions: fluorescence assay, CCF2-FA substrate, 2 pM enzyme, 2 hours at 25° C.; read-out: IMP-1 IC50
Procedure, shortened: (§1)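 Inhibitor was mixed with the metallo-β-lactamase and CCF2-FA. After 2 hours at 25° C, fluorescence of the coumarin–fluorescein cephalosporin substrate was read. IC50 was calculated with a 4-parameter fit.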

NDM-1 = NDM-1 (Klebsiella pneumoniae, UniProt C7C422); experiment: biochemical; assay type: biochemical; conditions: fluorescence assay, CCF2-FA substrate, 1 pM enzyme, 2 hours at 25° C.; read-out: NDM-1 IC50
Sequence of NDM-1 (C7C422 whole entry, looked up, species assumed): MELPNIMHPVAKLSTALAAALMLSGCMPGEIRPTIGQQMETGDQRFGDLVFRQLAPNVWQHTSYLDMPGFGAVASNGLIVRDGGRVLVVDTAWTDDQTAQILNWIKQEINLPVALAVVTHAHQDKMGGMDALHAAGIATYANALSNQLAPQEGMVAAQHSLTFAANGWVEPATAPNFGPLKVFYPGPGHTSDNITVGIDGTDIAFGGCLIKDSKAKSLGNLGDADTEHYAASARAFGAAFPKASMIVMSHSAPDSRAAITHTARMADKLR
Procedure, shortened: as §1

VIM-1 = VIM-1 (Pseudomonas aeruginosa (strain ATCC 15692 / DSM 22644 / CIP 104116 / JCM 14847 / LMG 12228 / 1C / PRS 101 / PAO1), UniProt A0A0F7KYQ8); experiment: biochemical; conditions: CCF2-FA substrate, 30 pM enzyme, 2 hours at 25° C.
Procedure, shortened: as §1

[1] = test system: Escherichia coli expressing NDM-1 (CLB30005, CLB30016); assay type: cell-based; conditions: with imipenem 1 μg/ml; for Escherichia coli expressing NDM-1 (CLB30016) MITC95: 95% inhibition of bacterial growth; for Escherichia coli MITC95: NDM-1 strain, 95% inhibition of growth
Procedure, shortened: (§2)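 Imipenem 1 μg/ml + inhibitor; MBL-expressing clinical strains in 1.1×CAMHB, inoculum from saline suspension diluted 1:100; 35° C, 22–24 h; absorbance read-out.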

[2] = test system: Klebsiella pneumoniae expressing VIM-1 (IHMA599644); assay type: cell-based; conditions: for Klebsiella pneumoniae expressing VIM-1 (IHMA599644) MITC95: with imipenem 1 μg/ml, 95% inhibition of bacterial growth; for Klebsiella pneumoniae MITC95: VIM-1 strain IHMA599644, with imipenem 1 μg/ml, 95% inhibition of growth
Procedure, shortened: as §2

[3] = test system: Serratia marcescens expressing IMP-1 (CL5741); assay type: cell-based; conditions: for Serratia marcescens expressing IMP-1 (CL5741) MITC95: with imipenem 1 μg/ml, 95% inhibition of bacterial growth; for Serratia marcescens MITC95: IMP-1 strain CL5741, with imipenem 1 μg/ml, 95% inhibition of growth
Procedure, shortened: as §2

[4] = test system: Pseudomonas aeruginosa efflux+ (MB9798), IMP-1; assay type: cell-based; parameters: Concentration of metallo-β-lactamase inhibitor which restores susceptibility of efflux + (MB9798) strain to imipenem: unit not given here; conditions: C, D serine β-lactamase inhibitor closely related to relebactam; for P. aeruginosa expressing IMP-1, efflux + (MB9798) MITC95: concentration restoring susceptibility to imipenem at 2 μg/mL in the presence of a class A
Procedure, shortened: (§3)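 Steps: add fixed imipenem and/or ceftazidime (usually CLSI breakpoint) and fixed AmpC-directed class A/C inhibitor to microbroth MIC wells; titrate MBL inhibitor; record concentration regaining susceptibility for each PAO1-derived strain; divide efflux+ by efflux− value.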

[5] = test system: Pseudomonas aeruginosa efflux− (MB9799), IMP-1; assay type: cell-based; conditions: C, D serine β-lactamase inhibitor closely related to relebactam; for P. aeruginosa expressing IMP-1, efflux − (MB9799) MITC95: concentration restoring susceptibility to imipenem at 2 μg/mL in the presence of a class A
Procedure, shortened: as §3

[6] = test system: Pseudomonas aeruginosa MB9798 vs MB9799
Procedure, shortened: as §3

[7] = fluorescence assay, read-out: VIM-1 IC50
[8] = ratio MITC95 PA_9798/MITC95 PA_9799

Sequence of IMP-1 (P52699 whole entry, looked up, species assumed): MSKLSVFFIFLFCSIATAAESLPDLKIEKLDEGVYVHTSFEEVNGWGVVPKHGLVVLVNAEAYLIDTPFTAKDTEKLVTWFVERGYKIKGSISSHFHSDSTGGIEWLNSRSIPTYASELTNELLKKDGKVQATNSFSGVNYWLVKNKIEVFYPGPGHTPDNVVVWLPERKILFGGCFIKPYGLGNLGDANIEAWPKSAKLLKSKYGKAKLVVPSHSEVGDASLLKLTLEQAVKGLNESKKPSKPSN

Structure (SMILES) | IC50 (IMP-1) | IC50 (NDM-1) | IC50 (VIM-1; [7]) | Escherichia coli expressing NDM-1 (CLB30016) MITC95 [1] | Klebsiella pneumoniae expressing VIM-1 (IHMA599644) MITC95 [2] | Serratia marcescens expressing IMP-1 (CL5741) MITC95 [3] | P. aeruginosa expressing IMP-1, efflux + (MB9798) MITC95 [4] | P. aeruginosa expressing IMP-1, efflux − (MB9799) MITC95 [5] | Efflux ratio [6, 8] | IC50 (VIM-1; VIM-1 IC50, fluorescence assay) | Escherichia coli MITC95 [1] | Klebsiella pneumoniae MITC95 [2] | Serratia marcescens MITC95 [3] | Concentration of metallo-β-lactamase inhibitor which restores susceptibility of efflux + (MB9798) strain to imipenem ([4]; efflux+ MB9798, imipenem at 2 μg/mL, in the presence of a class A) | Concentration of metallo-β-lactamase inhibitor which restores susceptibility of efflux − (MB9799) strain to imipenem ([5]; efflux− MB9799, imipenem at 2 μg/mL, in the presence of a class A) | Efflux ratio ([6]; fold difference between efflux+ (MB9798) and efflux− (MB9799) strains, imipenem at 2 μg/mL)
CN1CCCC(NS(=O)(=O)c2ccc(-c3cccc4sc(N)nc34)c(-c3nnn[nH]3)c2S(N)(=O)=O)C1 (stereo not drawn) [Example 18, 4-(2-amino-1,3-benzothiazol-4-yl)-N1-(1-methylpiperidin-3-yl)-3-(1H-tetrazol-5-yl)benzene-1,2-disulfonamide] | 0.268 nM | 0.0488 nM | 0.271 nM | 6.25 µM | 6.25 µM | 3.125 µM | 3.125 µM | 3.125 µM | 1.00 | – | – | – | – | – | – | –
Nc1nc2c(-c3ccc(S(=O)(=O)N[C@H]4CN[C@@H](CO)C4)c(S(N)(=O)=O)c3-c3nnn[nH]3)cccc2[nH]1 [Example 173, 4-(2-amino-1H-benzo[d]imidazol-4-yl)-N^1-((3R,5R)-5-(hydroxymethyl)pyrrolidin-3-yl)-3-(1H-tetrazol-5-yl)benzene-1,2-disulfonamide] | 0.933 nM | 0.0948 nM | – | 0.7813 µM | 3.125 µM | 0.7813 µM | 1.563 µM | 1.563 µM | 1.00 | 0.284 nM | – | – | – | – | – | –
Nc1nc2c(-c3ccc(S(=O)(=O)N[C@@H]4CN[C@H](CO)C4)c(S(N)(=O)=O)c3-c3nnn[nH]3)cccc2s1 [Example 80, 4-(2-amino-1,3-benzothiazol-4-yl)-N1-[(3S,5S)-5-(hydroxymethyl)pyrrolidin-3-yl]-3-(1H-tetrazol-5-yl)benzene-1,2-disulfonamide] | 0.336 nM | 0.0488 nM | – | 1.563 µM | 3.125 µM | 1.563 µM | 1.563 µM | 1.563 µM | 1.00 | 0.158 nM | – | – | – | – | – | –
C[C@@H](CCN)NS(=O)(=O)c1ccc(-c2cccc3[nH]c(N)nc23)c(-c2nn[nH]n2)c1S(N)(=O)=O [Example 267, (S)-4-(2-amino-1H-benzo[d]imidazol-4-yl)-N1-(4-aminobutan-2-yl)-3-(2H-tetrazol-5-yl)benzene-1,2-disulfonamide] | 1.63 nM | 0.179 nM | 0.279 nM | – | – | – | 0.7813 µM | 0.7813 µM | 1.00 | – | 0.7813 µM | 1.563 µM | 1.563 µM | – | – | –
N[C@@H]1CNC[C@@H]1NS(=O)(=O)c1ccc(-c2cnc3cc[nH]c3c2)c(-c2nn[nH]n2)c1S(N)(=O)=O [Example 326, N1-((3S,4R)-4-aminopyrrolidin-3-yl)-4-(1H-pyrrolo[3,2-b]pyridin-6-yl)-3-(2H-tetrazol-5-yl)benzene-1,2-disulfonamide] | 0.65 nM | 0.0502 nM | – | – | – | – | 1.563 µM | 1.563 µM | 1.00 | 0.115 nM | 0.7813 µM | 1.563 µM | 1.563 µM | – | – | –
NC[C@H](CO)NS(=O)(=O)c1ccc(-c2ccc(N)nc2)c(-c2nn[nH]n2)c1S(N)(=O)=O [Example 408] | 0.684 nM | 0.421 nM | 0.394 nM | – | – | – | – | – | – | – | 0.09766 µM | 3.125 µM | 0.7813 µM | 1.563 | 1.563 | 1.00
Nc1nc2c(-c3ccc(S(=O)(=O)NC4CCS(=O)(=O)CC4)c(S(N)(=O)=O)c3-c3nnn[nH]3)cccc2s1 [Example 14, 4-(2-amino-1,3-benzothiazol-4-yl)-N1-(1,1-dioxidotetrahydro-2H-thiopyran-4-yl)-3-(1H-tetrazol-5-yl)benzene-1,2-disulfonamide] | 0.173 nM | 0.0255 nM | 0.176 nM | 12.5 µM | 12.5 µM | 3.125 µM | 3.125 µM | 3.125 µM | 1.00 | – | – | – | – | – | – | –
C[C@H]1NC(=O)O[C@H]1c1ccc(-c2ccc(S(=O)(=O)N[C@@H]3CCNC3)c(S(N)(=O)=O)c2-c2nnn[nH]2)cc1 [Example 141, 4′-((4R,5S)-4-methyl-2-oxooxazolidin-5-yl)-N4-((R)-pyrrolidin-3-yl)-2-(1H-tetrazol-5-yl)-[1,1′-biphenyl]-3,4-disulfonamide] | 0.0408 nM | 0.0186 nM | 0.0623 nM | 3.125 µM | 6.25 µM | 6.25 µM | 1.563 µM | 1.563 µM | 1.00 | – | – | – | – | – | – | –
Nc1cncc(-c2ccc(S(=O)(=O)N[C@@H]3CCNC3)c(S(N)(=O)=O)c2-c2nn[nH]n2)c1 [Example 219, (R)-4-(5-aminopyridin-3-yl)-N1-(pyrrolidin-3-yl)-3-(2H-tetrazol-5-yl)benzene-1,2-disulfonamide] | 1.93 nM | 0.366 nM | 0.209 nM | 1.563 µM | 1.563 µM | 1.563 µM | 1.563 µM | 1.563 µM | 1.00 | – | – | – | – | – | – | –
NC(=O)[C@H](N)CNS(=O)(=O)c1ccc(-c2cccc3[nH]c(N)nc23)c(-c2nn[nH]n2)c1S(N)(=O)=O [Example 188, (2R)-2-amino-3-(4-(2-amino-1H-benzo[d]imidazol-4-yl)-2-sulfamoyl-3-(2H-tetrazol-5-yl)phenylsulfonamido)propanamide] | 0.613 nM | 0.0756 nM | 0.213 nM | 1.563 µM | 3.125 µM | 1.563 µM | 0.7813 µM | 1.563 µM | 0.50 | – | – | – | – | – | – | –
